# According to article PMC13503280, “A pharmacological modality to sequester homomeric proteins” (Nature Chemical Biology, 2026):
# How the values were obtained:
# HEK 293 cells = experiment: Viability measurements, HEK 293 cells; format: cell-based; details: HEK 293 cells (lack BCL6 expression), 72 h
# Procedure: (§1) Cells were seeded in a transparent-bottom, black 96-well plate, at 15,000 cells per well in sixfold replications. in 90 µl of medium and left to adhere for at least 4 h. The cells were then treated with the respective compound by adding 10 µl of medium–-compound mixture for a final volume of 100 µl in each well. Cell-Titer blue reagent was used to measure viability according to the manufacturer’s instructions. Plate reader measurements were performed on a Tecan Spark Control 10 M fluorescence system.
# c-Myc = experiment: WB of c-Myc protein levels in Mino cells; format: cell-based; details: 20 h
# Procedure: (§2) Cells were incubated with DMSO at 0.1% or with compound in concentrations ranging 10–20,000 nM for 20 h unless indicated differently. Following incubation, lysis was performed in RIPA buffer and the samples were measured for total protein quantification by BCA assay (Thermo Fisher Scientific, 23225). Then, 20–40 μg of each sample was loaded and run on an SDS–PAGE gel, before transferring onto a nitrocellulose membrane using a Trans-Blot Turbo system (Bio-Rad) and blocking using a 5% BSA in TBS-T (w/v) solution for 1 h at room temperature. Incubation with primary antibodies (mouse anti-BCL-6 (sc-7388, Santa Cruz, 1:500; overnight at 4 °C), mouse anti-Keap1 (sc-365626, Santa Cruz, 1:500; overnight at 4 °C), rabbit anti-LDHA (4H18L6, Thermo Fisher, 1:1,000; overnight at 4 °C), mouse anti-NQO2 (sc-271665, Santa Cruz, 1:500; overnight at 4 °C), rabbit anti-c-Myc (5605, Cell Signaling, 1:1,000; overnight at 4 °C) and mouse anti-β-actin (3700, Cell Signaling, 1:1,000; 1 h at room temperature) was performed and then the membranes were washed and incubated with a horseradish-peroxidase-conjugated secondary antibody (mouse 7076/rabbit 7074, Cell Signaling) at room temperature for 1 h. Imaging of the chemiluminescence signal was performed using a ChemiDoc XRS+ instrument (Bio-Rad). Primary band quantifications were normalized against β-actin bands.
# Mino cells = experiment: Viability measurements, Mino cells; format: cell-based; details: Mino cells, 72 h
# Procedure: as §1
# BCL6 = target: T1, BCL6 (Homo sapiens, UniProt P41182); experiment: WB of BCL6 levels in Mino cells (soluble/insoluble fraction); format: cell-based; details: 20 h incubation
# T1 construct: in Mino cells, as BCL6 is mostly expressed in B cells; endogenous in cells; host or cells: Mino (ATCC CRL-3000)
# Procedure: Cells were incubated with DMSO at 0.1% or with compound in concentrations ranging 10–20,000 nM for 20 h unless indicated differently. […] Then, 20–40 μg of each sample was loaded and run on an SDS–PAGE gel, before transferring onto a nitrocellulose membrane using a Trans-Blot Turbo system (Bio-Rad) and blocking using a 5% BSA in TBS-T (w/v) solution for 1 h at room temperature. […] Imaging of the chemiluminescence signal was performed using a ChemiDoc XRS+ instrument (Bio-Rad). Primary band quantifications were normalized against β-actin bands.
# Ramos cells = experiment: Viability measurements, Ramos cells; format: cell-based; details: Ramos cells, 72 h
# Procedure: as §1
# Keap1 and BCL6 [1] = target: T2, Keap1 and BCL6 (Homo sapiens, UniProt P41182+Q14145); experiment: WB of Keap1 and BCL6 in OCI-AML2 cells (hetero-PINCH); format: cell-based; set-up: endogenous in cells; host or cells: OCI-AML2; details: 20 h
# Procedure: as §2
# Keap1 and BCL6 [2] = target: T2, Keap1 and BCL6; experiment: WB of Keap1 and BCL6 in Mino cells (hetero-PINCH); format: cell-based; set-up: Mino cells that express high levels of BCL6; endogenous in cells; host or cells: Mino; OCI-AML2; details: 20 h
# Procedure: as §2
# Keap1 = Keap1 (Homo sapiens, UniProt Q14145); experiment: WB of Keap1 in HEK 293 cells (hetero-PINCH); format: cell-based; set-up: endogenous in cells; host or cells: HEK 293 (ATCC CRL-1573); details: HEK 293 cells (does not express BCL6), 20 h
# Procedure: as §2
# recombinant NQO2 = target: T3, recombinant NQO2 (Homo sapiens, UniProt P16083); experiment: DLS of recombinant NQO2; format: biochemical; details: recombinant NQO2, room temperature, over time
# T3 construct: made in house; host or cells: E. coli BL21(DE3)
# T3 sequence (P16083 1-231): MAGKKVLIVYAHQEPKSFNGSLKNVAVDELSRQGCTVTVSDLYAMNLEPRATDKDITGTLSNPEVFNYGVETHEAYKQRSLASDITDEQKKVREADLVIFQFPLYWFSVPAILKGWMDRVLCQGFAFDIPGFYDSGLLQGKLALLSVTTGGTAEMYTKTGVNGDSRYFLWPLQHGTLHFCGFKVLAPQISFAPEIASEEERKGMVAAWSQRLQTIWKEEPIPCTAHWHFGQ
# Procedure: (§3) DLS samples were prepared in the respective protein’s elution buffer, to which 0.01% Tween was added, along with the compound from a DMSO stock to obtain a final DMSO concentration of 2%. Samples were prepared at room temperature and measured at a constant temperature of 25 °C. All samples were passed through 0.1-μm filters and then placed in a clear-bottom black 384-well plate. DLS data were recorded using a DynaproPlate Reader III (Wyatt Technology). Data were processed with the supplied DYNAMICS software.
# LDHA [3] = target: T4, LDHA (Homo sapiens, UniProt P00338); experiment: Immunostaining of LDHA in U2OS cells; format: cell-based; set-up: endogenous in cells; host or cells: U2OS (ATCC HTB-96); details: 5µM, 20 hours
# Procedure: For spinning disk confocal microscopy, cells were allowed to adhere to a 14-mm glass-bottom plate (MatTek P35G-1.5-14-C), followed by fixation with 3.7% formaldehyde for 5 min and permeabilization with 0.1% Triton X-100 for 10 min. The cells were then blocked with 5% BSA for 60 min at room temperature. Cells were stained with primary antibody, at a concentration of 1:100, for 3 h at room temperature and were then subjected to a secondary antibody conjugated to Alexa Fluor, at a concentration of 1:100–500, for 1 h at room temperature. Lastly, cells were also stained with DAPI for 10 min at room temperature.
# LDHA [4] = target: T4, LDHA; experiment: DLS of recombinant LDHA; format: biochemical; set-up: The gene encoding full-length WT human LDHA was cloned into pET28; His6 tag followed by a tobacco etch virus protease cleavage site (N); made in house; host or cells: Escherichia coli BL21(DE3); details: room temperature, over time
# Procedure: as §3
# [5] = target: T5, recombinant BCL6 BTB domain (Homo sapiens, UniProt P41182); experiment: Intact protein LC–MS labeling of BCL6 BTB domain; format: binding; details: 2 μM protein, 10 μM compound, incubation 90 min
# T5 construct: The BCL6 BTB domain (5–129) was cloned into the pET28-bdSumo vector; His–bdSumo (N, cleaved yes); made in house; host or cells: E. coli BL21(DE3) (as described for Keap1 BTB)
# Excerpt: A covalent inhibitor of BCL6 that irreversibly binds a tyrosine residue in the BTB domain dimeric interface was previously reported. […] Importantly, the linker had to be long enough to minimize potential steric clashes between bridged homodimers yet short enough to forbid intramolecular binding of subunits from the same homodimer.
# Extended Data Fig. 1 SAR of BCL6 targeting PINCHs. a. […] Representative results from 3 independent experiments, and c. These compounds’ structures. Source data
# BCL6(1–275)–GFP = target: T6, BCL6(1–275)–GFP (Homo sapiens, UniProt P41182); experiment: BCL6(1–275)–GFP puncta in HEK 293 cells; format: cell-based; details: HEK 293 cells overexpressing BCL6(1–275)–GFP
# T6 construct: HEK 293 cells expressing GFP fused to BCL6 (residues 1–275); host or cells: HEK 293
# Procedure: Automatic aggregate segmentation was conducted using the surface module with manual threshold fixed for all images of the same experiment (default 2-pixel smoothing, background subtraction with 0.9-μm largest sphere, morphological split with 0.5-μm seed point diameter). Analysis was conducted per cell by manually selecting regions covering the individual cell and not overlapping with neighboring cells.
# OCI-AML2 cells = experiment: Viability measurements, OCI-AML2 cells; format: cell-based; details: OCI-AML2, 72 h
# Procedure: as §1
# Nrf2 = experiment: WB of Nrf2; format: cell-based; details: U2OS cells, 20 h compound treatment
# recombinant Keap1 BTB = target: T7, recombinant Keap1 BTB (Homo sapiens, UniProt Q14145, S172A); experiment: DLS of recombinant Keap1 BTB domain; format: biochemical; details: 50 μM Keap1 BTB, 50 μM compound, room temperature, over time
# T7 construct: The Keap1 BTB domain (48–180) encoding the single substitution S172A was cloned into pET28-bdSumo vector; His–bdSumo (N, cleaved yes); made in house; host or cells: E. coli BL21(DE3)
# Procedure: as §3
# NQO1 expression = experiment: qPCR for NQO1 expression in OCI-AML2 cells after washout; format: cell-based; details: OCI-AML2, 250 nM 20 h, from 48 h after treatment
# Procedure: Cells were treated with either DMSO or compound at 250 nM, followed by washing out the treated medium after 20 h and reseeding in fresh medium. Cells were then collected at several time points post washout. Total RNA was extracted using RNeasy mini kit (Qiagen, 74104). […] PCR amplification was carried out in Step-One Plus thermocycler (Applied Biosystems). Relative quantification was performed using standard curves. GAPDH was used for normalization.
# U2OS cells = experiment: Viability measurements, U2OS cells; format: cell-based; details: 72 h
# Procedure: as §1
# Sequence of Keap1 (Q14145 whole entry): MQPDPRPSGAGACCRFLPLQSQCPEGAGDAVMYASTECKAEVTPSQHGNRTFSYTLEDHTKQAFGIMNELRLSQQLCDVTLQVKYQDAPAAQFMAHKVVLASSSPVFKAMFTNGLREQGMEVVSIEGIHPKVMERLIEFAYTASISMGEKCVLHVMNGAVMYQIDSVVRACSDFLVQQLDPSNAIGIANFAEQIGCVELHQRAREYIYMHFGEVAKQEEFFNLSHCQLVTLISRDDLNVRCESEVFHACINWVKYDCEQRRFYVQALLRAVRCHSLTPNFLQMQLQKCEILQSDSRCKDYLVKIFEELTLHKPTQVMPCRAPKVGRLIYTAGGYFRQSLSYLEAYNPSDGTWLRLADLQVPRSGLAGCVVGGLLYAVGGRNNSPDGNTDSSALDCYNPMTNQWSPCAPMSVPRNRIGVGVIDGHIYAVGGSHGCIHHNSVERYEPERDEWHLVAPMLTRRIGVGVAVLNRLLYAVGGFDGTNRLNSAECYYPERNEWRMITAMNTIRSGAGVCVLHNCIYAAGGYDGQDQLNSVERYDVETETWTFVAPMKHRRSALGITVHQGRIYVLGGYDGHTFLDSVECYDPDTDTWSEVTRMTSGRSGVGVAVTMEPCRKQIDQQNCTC
# T7 sequence (Q14145 48-180 S172A): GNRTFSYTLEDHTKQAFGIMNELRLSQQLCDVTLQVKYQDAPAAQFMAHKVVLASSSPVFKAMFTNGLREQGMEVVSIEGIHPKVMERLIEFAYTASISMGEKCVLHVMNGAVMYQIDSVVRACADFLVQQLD
compound,measurement,setting,value
"CNC(=O)COc1cc2cc(Nc3nc(N4C[C@H](C)C[C@H](C)C4)ncc3Cl)ccc2n(C)c1=O [BI-3802, reference compound]",effect on viability,HEK 293 cells,no compound affected the viability
same,c-Myc protein levels (WB),c-Myc,no such effect on c-Myc
same,effect on viability,Mino cells,no viability effect
same,BCL6 in soluble and insoluble fraction (WB),BCL6,no accumulation in the insoluble fraction
same,effect on viability,Ramos cells,no viability effect
COc1cc(Nc2cc(NCc3cccc(S(=O)(=O)F)c3)ccc2Cl)cc2cc(OCC(=O)NCCOCCOCCOCCOCCOCCOCCOCCOCCOCCOCCOCCOCCNC(=O)[C@]34CCC(C)(C)C[C@H]3[C@H]3C(=O)C=C5[C@@]6(C)C=C(C#N)C(=O)C(C)(C)[C@@H]6CC[C@@]5(C)[C@]3(C)CC4)c(=O)n(C)c12 [EL230],Keap1 and BCL6 levels (WB),Keap1 and BCL6 [1],Keap1 and BCL6 were downregulated simultaneously
same,Keap1 and BCL6 levels in soluble/insoluble phase (WB),Keap1 and BCL6 [2],reduction in both Keap1 and BCL6 levels in the soluble phase
same,Keap1 level (WB),Keap1,Keap1 remained unchanged
Cc1ccc(-c2cn3cccc(C)c3n2)cc1S(=O)(=O)N1CCN(C(=O)COCCOCCOCC(=O)N2CCN(S(=O)(=O)c3cc(-c4cn5cccc(C)c5n4)ccc3C)CC2)CC1 [EL246],formation of larger species (DLS),recombinant NQO2,ability to form larger species in solution
Cc1nc2ccc(NC(=O)CC(NC(=O)CCCc3ccc(CC(C(=O)O)C(=O)O)cc3)C(=O)NCCOCCOCCOCCOCCNC(=O)C(CC(=O)Nc3ccc4nc(C)sc4c3)NC(=O)CCCc3ccc(CC(C(=O)O)C(=O)O)cc3)cc2s1 (stereo not drawn) [OS-47B],LDHA localization (immunostaining),LDHA [3],no effect on LDHA localization
same,formation of larger species (DLS),LDHA [4],formation of larger species over time
COc1cc(Nc2cc(NCc3cccc(S(=O)(=O)F)c3)ccc2Cl)cc2cc(OCC(=O)NCCOCCOCCOCCOCCOCCOCCOCCOCCOCCOCCOCCOCCOCCN)c(=O)n(C)c12 [compound 23],Keap1 and BCL6 levels in soluble/insoluble phase (WB),Keap1 and BCL6 [2],did not induce such effects on either target
CC1(C)CC[C@]2(C(=O)NCCOCCOCCOCCOCCOCCOCCOCCOCCOCCOCCOCCOCCOCCN)CC[C@]3(C)[C@H](C(=O)C=C4[C@@]5(C)C=C(C#N)C(=O)C(C)(C)[C@@H]5CC[C@]43C)[C@@H]2C1 [compound 24],Keap1 and BCL6 levels in soluble/insoluble phase (WB),Keap1 and BCL6 [2],did not induce such effects on either target
CNC(=O)COc1cc2cc(Nc3cc(NCc4cccc(S(=O)(=O)F)c4)ccc3Cl)cc(OC)c2n(C)c1=O [w8001],labeling of recombinant BCL6 BTB domain by intact protein LC–MS,[5],100%
same,effect on viability,HEK 293 cells,no compound affected the viability
same,BCL6–GFP puncta formation,BCL6(1–275)–GFP,no such puncta
"Bardoxolone [BDX, reference compound]",IC50,OCI-AML2 cells,1000 nM
same,Nrf2 levels (WB),Nrf2,Nrf2 upregulation
same,formation of large species (DLS),recombinant Keap1 BTB,did not appear
same,duration of NQO1 upregulation after washout,NQO1 expression,returned closer to its original level
same,IC50,U2OS cells,723 nM
